Data taken from ChEMBL document CHEMBL1201862, “PubChem BioAssay data set” (2004).
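Five compound concentrations were applied to cells in 96-well plates for 48 hours; endpoints were derived by simple linear interpolation of the resulting dose-response curve. GI50: concentration for 50% inhibition of growth.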 Calls of active or inactive are those of the source. No stated cut-off is given here; in the data, active = GI50 up to about 1.1 µM and inactive = higher.

Experiments:
Assay in all cases: growth of human tumour cells (NCI), 48 h
[1] = system: RXF 631
[2] = system: DLD-1
[3] = system: DMS-273
[4] = system: HOP-18
[5] = system: DMS-114
[6] = system: SNB-78
[7] = system: XF498
[8] = system: KM-20L2
[9] = system: M19-MEL

Measured: GI50

Cc1cc2c(=O)cc(-c3ccc(F)cc3)oc2c(C(=O)O)c1C
inactive: [1] > 100 µM | [2] > 100 µM | [3] > 100 µM | [4] > 100 µM | [5] > 100 µM | [6] > 100 µM | [7] > 100 µM | [8] > 100 µM | [9] > 100 µM

CC1(C)C(=NN=C(N)N)C(C)(C)C1=NN=C(N)N
inactive: [1] > 100 µM | [2] > 100 µM | [3] > 100 µM | [5] > 100 µM | [6] > 100 µM | [7] > 100 µM | [8] > 100 µM | [9] > 100 µM

Cc1cc(=O)c2c(O)cc3c(c2o1)CC=C(COC1OC(COC2OC(CO)C(O)C(O)C2O)C(O)C(O)C1O)CO3 (stereo unspecified)
inactive: [2] > 100 µM | [3] > 100 µM | [5] > 100 µM | [6] > 100 µM | [7] > 100 µM | [8] > 100 µM | [9] > 100 µM

BrC1=CC=C2NC=CC3=CC=NC1C32 (stereo unspecified)
inactive: [1] 27.2 µM | [2] 19 µM | [3] 7.14 µM | [4] 14.1 µM | [5] 14 µM | [6] 29.6 µM | [7] 22.9 µM | [8] 19.7 µM | [9] 14.1 µM

COC(=O)C1=C(O)c2cc(OC)c(OC)cc2C(c2ccc(OC)c(OC)c2)C1 (stereo unspecified)
inactive: [1] 49.1 µM | [2] 44 µM | [3] 67.3 µM | [4] > 100 µM | [5] > 100 µM | [6] > 100 µM | [7] 94.6 µM | [8] 86.7 µM | [9] > 100 µM

COc1ccc2c3c1C(=O)CCC3CO2 (stereo unspecified)
inactive: [1] > 100 µM | [2] > 100 µM | [3] > 100 µM | [5] > 100 µM | [6] > 100 µM | [7] > 100 µM | [8] > 100 µM | [9] > 100 µM

CC1(C)CC2CC(CC(C)(C)C2=O)C1=O
inactive: [1] > 100 µM | [2] > 100 µM | [3] > 100 µM | [4] > 100 µM | [5] > 100 µM | [6] > 100 µM | [7] > 100 µM | [8] > 100 µM | [9] > 100 µM

CCOC(=O)C1S/C(=N\c2ccc(Cl)c(Cl)c2)N=C1C (stereo unspecified)
inactive: [1] 58.6 µM | [2] 25.1 µM | [3] 41.2 µM | [4] 96.8 µM | [7] 35.6 µM | [8] 20.9 µM | [9] 26.2 µM

CC(=O)c1cccc(NCn2nnc3ccccc32)c1
inactive: [2] > 100 µM | [3] > 100 µM | [4] > 100 µM | [5] > 100 µM | [7] > 100 µM | [8] > 100 µM | [9] > 100 µM

Cc1cn(C2CC(n3cncn3)C(C(C)O)O2)c(=O)[nH]c1=O (stereo unspecified)
inactive: [2] > 100 µM | [3] > 100 µM | [4] > 100 µM | [5] > 100 µM | [6] > 100 µM | [7] > 100 µM | [8] > 100 µM | [9] > 100 µM

CC#C[P+](c1ccccc1)(c1ccccc1)c1ccccc1
inactive: [2] 2.34 µM | [3] 2.11 µM | [4] 11.7 µM | [5] 2.08 µM | [6] 4.33 µM | [7] 2.39 µM | [8] 6.71 µM | [9] 2.9 µM

N#Cc1cn(-c2c3ccccc3nc3ccccc23)c(=O)[nH]c1=O
inactive: [2] 15.5 µM | [5] 8 µM | [6] 13.5 µM | [7] 11.6 µM | [8] 7.38 µM | [9] 6.46 µM

COC(OC)c1cccc2c1C1(O)CCC3(CC21)OCCCCO3 (stereo unspecified)
inactive: [2] > 100 µM | [3] > 100 µM | [4] > 100 µM | [5] > 100 µM | [6] > 100 µM | [8] > 100 µM | [9] > 100 µM

O=C(c1ccccc1)N1CCc2c([nH]c3ccccc23)C1
inactive: [1] > 100 µM | [2] 64.7 µM | [3] 30.7 µM | [4] 52.6 µM | [5] 20.4 µM | [7] 20.8 µM | [8] 54.1 µM | [9] 36.8 µM

C=C(CN(C)C)C(=O)c1ccc(C(=O)C(=C)CN(C)C)cc1
inactive: [2] > 100 µM | [4] > 100 µM | [7] > 100 µM | [8] > 100 µM | [9] > 100 µM

O=C(O)CCNS(=O)(=O)c1ccc([N+](=O)[O-])cc1
inactive: [1] > 100 µM | [2] > 100 µM | [3] > 100 µM | [4] > 100 µM | [7] > 100 µM | [8] > 100 µM | [9] > 100 µM

CC1(C)OC(=S)N(c2ccccc2)C12C=Cc1cc3ccccc3nc1S2 (stereo unspecified)
inactive: [2] 40.6 µM | [3] 97.3 µM | [5] > 100 µM | [7] > 100 µM | [8] > 100 µM | [9] 93.8 µM

CN1C2C=C(c3ccccc3)CC1CC2 (stereo unspecified)
inactive: [2] > 100 µM | [4] > 100 µM | [7] > 100 µM | [8] > 100 µM | [9] > 100 µM

Cc1ccc(S(=O)(=O)c2c3nc4ccccc4nc3n3c2[nH]c2ccccc23)cc1
inactive: [2] > 100 µM | [3] 88.7 µM | [5] > 100 µM | [6] > 100 µM | [7] > 100 µM | [8] > 100 µM | [9] > 100 µM

CCOc1cccc2ccc[n+](CC)c12
inactive: [1] > 100 µM | [2] > 100 µM | [3] 35.8 µM | [4] > 100 µM | [5] 32.7 µM | [7] 42.9 µM | [8] 52.2 µM | [9] 41 µM

O=C(O)CSc1nnc(Cc2ccccc2)[nH]1
inactive: [1] > 100 µM | [2] > 100 µM | [4] > 100 µM | [5] > 100 µM | [6] > 100 µM | [7] 15.7 µM | [9] > 100 µM

CCn1c2c(n(CC)c1=S)-c1c(n(CC)c(=S)n1CC)SSSS2
inactive: [1] 15.3 µM | [2] 1.63 µM | [3] 17.5 µM | [4] 8.85 µM | [5] 15.8 µM | [6] 11.4 µM | [7] 1.52 µM | [8] 11.6 µM | [9] 7.78 µM

Nc1ccc(C(=O)NN2C(=O)C(Cl)C2c2ccccc2Cl)cc1 (stereo unspecified)
inactive: [2] 10.8 µM | [3] 3.2 µM | [4] 3.1 µM | [5] 5.48 µM | [6] 15.7 µM | [7] 17.5 µM | [8] 15.8 µM | [9] 7.94 µM

CNS(=O)(=O)NN(C)S(=O)(=O)c1ccc(OC)cc1
inactive: [1] > 100 µM | [2] > 100 µM | [3] > 100 µM | [5] > 100 µM | [7] > 100 µM | [8] > 100 µM | [9] > 100 µM

CCO/C=C\C12CCCC1NC(c1ccccc1)(c1ccccc1)O2 (stereo unspecified)
inactive: [2] 32.3 µM | [3] 32.7 µM | [5] 30.6 µM | [6] 54.8 µM | [8] 23.1 µM | [9] 24.7 µM

C[C@@]12CCCC(=O)N1[C@@H](CO)C(c1ccccc1)O2 (stereo partly specified)
inactive: [2] > 100 µM | [3] > 100 µM | [4] > 100 µM | [5] > 100 µM | [6] > 100 µM | [7] > 100 µM | [8] > 100 µM | [9] > 100 µM

C[C@@H](c1ccccc1)N(CC#N)C1CCC[C@H]1O (stereo partly specified)
inactive: [1] > 100 µM | [3] > 100 µM | [4] > 100 µM | [6] > 100 µM | [7] > 100 µM | [8] > 100 µM | [9] > 100 µM

Cn1cnc([N+](=O)[O-])c1SC1=NCCS1
inactive: [2] 31.4 µM | [3] 98.6 µM | [4] 4.24 µM | [6] 42.9 µM | [7] > 100 µM | [9] 49.4 µM
